Test results taken from patent US8580811B2 (Ligand Pharmaceuticals Incorporated, priority 2005, dated 2013).
pKi: −log10 of the molar value.

Target: T1, human AR (Homo sapiens, UniProt P10275)
T1 construct: expressed in transfected cells; host or cells: COS-1 cells
T1 sequence (P10275 1-920): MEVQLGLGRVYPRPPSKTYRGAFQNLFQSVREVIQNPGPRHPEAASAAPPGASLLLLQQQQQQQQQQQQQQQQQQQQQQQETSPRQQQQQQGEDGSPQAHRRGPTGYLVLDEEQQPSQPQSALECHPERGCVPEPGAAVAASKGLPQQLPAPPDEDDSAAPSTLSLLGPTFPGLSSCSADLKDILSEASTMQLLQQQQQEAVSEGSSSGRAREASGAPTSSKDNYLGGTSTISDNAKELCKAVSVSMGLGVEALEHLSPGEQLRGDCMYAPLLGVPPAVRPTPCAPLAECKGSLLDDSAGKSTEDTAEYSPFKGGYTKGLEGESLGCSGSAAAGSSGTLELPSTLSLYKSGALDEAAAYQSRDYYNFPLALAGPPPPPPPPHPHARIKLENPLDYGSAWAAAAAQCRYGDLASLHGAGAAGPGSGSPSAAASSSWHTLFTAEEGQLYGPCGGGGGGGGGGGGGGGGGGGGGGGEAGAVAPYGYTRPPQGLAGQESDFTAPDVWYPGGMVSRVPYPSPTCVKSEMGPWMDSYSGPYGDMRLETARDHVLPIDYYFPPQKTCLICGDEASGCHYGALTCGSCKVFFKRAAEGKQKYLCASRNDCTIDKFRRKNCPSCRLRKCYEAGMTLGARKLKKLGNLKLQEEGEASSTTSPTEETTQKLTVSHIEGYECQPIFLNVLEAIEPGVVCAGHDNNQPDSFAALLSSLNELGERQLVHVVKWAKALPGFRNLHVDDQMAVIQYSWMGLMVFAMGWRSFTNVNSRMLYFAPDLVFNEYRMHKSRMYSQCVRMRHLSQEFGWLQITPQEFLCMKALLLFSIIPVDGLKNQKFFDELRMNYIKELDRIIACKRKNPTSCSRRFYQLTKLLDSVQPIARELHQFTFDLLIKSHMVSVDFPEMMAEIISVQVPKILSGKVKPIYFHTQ
Experiment: IR Binding Assay: whole cell competitive binding of test compounds against 3H-DHT in COS-1 cells transfected with pRShAR
How it was run: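 COS-1 cells transfected with pRShAR plus β-Gal reporter, serum-starved 24 h, then exposed to 1 nM ³H-DHT with compounds at 10^−10 to 10^−6 M for 3 h at 37 °C. Bound ³H-DHT counted in lysates, normalized to β-Gal. IC50 from log-logit plot; Ki via Cheng-Prusoff using Kd from Scatchard saturation analysis.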

Compound	pKi
CC1c2c(ccc3[nH]c(=O)cc(Cl)c23)N(CCC(F)(F)F)C1c1ccccc1 (racemic) [Compound 169, (±)-9-Chloro-1-methyl-2-phenyl-3-(3,3,3-trifluoropropyl)-1,2,3,6-tetrahydro-pyrrolo[3,2-f]quinolin-7-one]	> 8.30
CC1c2c(ccc3[nH]c(=O)cc(Cl)c23)N(CCc2cccs2)C1C (racemic) [Compound 142, (±)-9-Chloro-1,2-dimethyl-3-(2-thien-2-yl-ethyl)-1,2,3,6-tetrahydro-pyrrolo[3,2-f]-quinolin-7-one]	> 8.30
CC1c2c(ccc3[nH]c(=O)cc(Cl)c23)N(CC(C)(C)C)C1C (racemic) [Compound 141, (±)-9-Chloro-1,2-dimethyl-3-(2,2-dimethylpropyl)-1,2,3,6-tetrahydro-pyrrolo[3,2-f]quinolin-7-one]	8.00 to 8.30
CCc1c(C)c2c3c(Cl)cc(=O)[nH]c3ccc2n1C[C@@H](O)C(F)(F)F [Compound 281, (R)-9-Chloro-2-ethyl-1-methyl-3-(3,3,3-trifluoro-2-hydroxy-propyl)-3,6-dihydro-pyrrolo[3,2-f]quinolin-7-one]	> 8.30
CC1c2c(cc(F)c3[nH]c(=O)cc(Cl)c23)N(CC(F)(F)F)C1C (racemic) [Compound 151, (±)-9-Chloro-1,2-dimethyl-5-fluoro-3-(2,2,2-trifluoro-ethyl)-1,2,3,6-tetrahydro-pyrrolo[3,2-f]quinolin-7-one]	> 8.30
C#CCn1c(C)c(C)c2c3c(C(F)(F)F)cc(=O)[nH]c3ccc21 [Compound 242, 1,2-Dimethyl-3-(prop-2-ynyl)-9-trifluoromethyl-3,6-dihydro-pyrrolo[3,2-f]quinolin-7-one]	> 8.30
Cc1c(C)n(C[C@H](O)CO)c2ccc3[nH]c(=O)cc(Cl)c3c12 [Compound 291, (S)-9-Chloro-3-(2,3-dihydroxypropyl)-1,2-dimethyl-3,6-dihydro-pyrrolo[3,2-f]-quinolin-7-one]	< 8.00
Cc1c(C(F)(F)F)n(CC(F)(F)F)c2ccc3[nH]c(=O)cc(C(F)(F)F)c3c12 [Compound 234, 1-Methyl-3-(2,2,2-trifluoro-ethyl)-2,9-bis-trifluoromethyl-3,6-dihydro-pyrrolo[3,2-f]-quinolin-7-one]	> 8.30
CC1c2c(ccc3[nH]c(=O)cc(Cl)c23)N(CCO)C1C (racemic) [Compound 139, (±)-9-Chloro-1,2-dimethyl-3-(2-hydroxyethyl)-1,2,3,6-tetrahydro-pyrrolo[3,2-f]-quinolin-7-one]	< 8.00
CC1c2c(ccc3[nH]c(=O)cc(Cl)c23)N(CC(F)(F)F)C1C (racemic) [Compound 127, (±)-9-Chloro-1,2-dimethyl-3-(2,2,2-trifluoro-ethyl)-1,2,3,6-tetrahydro-pyrrolo[3,2-f]quinolin-7-one]	8.00 to 8.30
CC1c2c(ccc3[nH]c(=O)cc(C(F)(F)F)c23)N(CC(F)(F)Cl)C1C (racemic) [Compound 175, (±)-3-(2-Chloro-2,2-difluoroethyl)-1,2-dimethyl-9-trifluoromethyl-1,2,3,6-tetrahydro-pyrrolo[3,2-f]quinolin-7-one]	> 8.30
CCN1CC(C)c2c1ccc1[nH]c(=O)cc(Cl)c21 (racemic) [Compound 134, (±)-9-Chloro-3-ethyl-1-methyl-1,2,3,6-tetrahydro-pyrrolo[3,2-f]quinolin-7-one]	> 8.30
Cc1c(-c2ccc(F)cc2)[nH]c2ccc3[nH]c(=O)cc(Cl)c3c12 [Compound 116, 9-Chloro-2-(4-fluorophenyl)-1-methyl-3,6-dihydro-pyrrolo[3,2-f]quinolin-7-one]	> 8.30
Cc1c(-c2cccs2)n(C[C@@H](O)C(F)(F)F)c2ccc3[nH]c(=O)cc(Cl)c3c12 [Compound 282, (R)-9-Chloro-1-methyl-2-thiophen-2-yl-3-(3,3,3-trifluoro-2-hydroxy-propyl)-3,6-dihydro-pyrrolo[3,2-f]quinolin-7-one]	> 8.30
Cc1cc2c(ccc3[nH]c(=O)cc(Cl)c32)[nH]1 [Compound 112, 9-Chloro-2-methyl-3,6-dihydro-pyrrolo[3,2-f]quinolin-7-one]	< 8.00
Cc1c(CO)n(CC(F)(F)F)c2ccc3[nH]c(=O)cc(Cl)c3c12 [Compound 230, 9-Chloro-2-hydroxymethyl-1-methyl-3-(2,2,2-trifluoro-ethyl)-3,6-dihydro-pyrrolo[3,2-f]-quinolin-7-one]	< 8.00
CCC1C(C)c2c(ccc3[nH]c(=O)cc(Cl)c23)N1CC(F)(F)C(F)(F)F (racemic) [Compound 177, (±)-9-Chloro-2-ethyl-1-methyl-3-(2,2,3,3,3-pentafluoropropyl)-1,2,3,6-tetrahydro-pyrrolo[3,2-f]quinolin-7-one]	> 8.30
CCc1c(C)c2c3c(Cl)cc(=O)[nH]c3ccc2n1CC(F)(F)C(F)(F)F [Compound 223, 9-Chloro-2-ethyl-1-methyl-3-(2,2,3,3,3-pentafluoropropyl)-3,6-dihydro-pyrrolo[3,2-f]-quinolin-7-one]	> 8.30
CCc1c(C)c2c3c(C(F)(F)F)cc(=O)[nH]c3ccc2n1CC(O)C(F)(F)F (racemic) [Compound 247, (±)-2-Ethyl-1-methyl-3-(3,3,3-Trifluoro-2-hydroxy-propyl)-9-trifluoromethyl-3,6-dihydro-pyrrolo[3,2-f]quinolin-7-one]	> 8.30
Cc1cn(CC(F)(F)F)c2ccc3[nH]c(=O)cc(Cl)c3c12 [Compound 211, 9-Chloro-1-methyl-3-(2,2,2-trifluoroethyl)-3,6-dihydro-pyrrolo[3,2-f]quinolin-7-one]	8.00 to 8.30
Cc1c(C)n(C[C@@H](O)C(F)(F)F)c2ccc3[nH]c(=O)cc(Cl)c3c12 [Compound 278, (R)-9-Chloro-1,2-dimethyl-3-(3,3,3-trifluoro-2-hydroxy-propyl)-3,6-dihydro-pyrrolo[3,2-f]-quinolin-7-one]	> 8.30
CC1c2c(ccc3[nH]c(=O)cc(Cl)c23)N(C)C1C (racemic) [Compound 136, (±)-9-Chloro-1,2,3-trimethyl-1,2,3,6-tetrahydro-pyrrolo[3,2-f]quinolin-7-one]	< 8.00
Cc1c(C)n(CCCO)c2ccc3[nH]c(=O)cc(Cl)c3c12 [Compound 287, 9-Chloro-1,2-dimethyl-3-(3-hydroxypropyl)-3,6-dihydro-pyrrolo[3,2-f]quinolin-7-one]	< 8.00
Cc1c(-c2ccccc2F)[nH]c2ccc3[nH]c(=O)cc(Cl)c3c12 [Compound 119, 9-Chloro-2-(2-fluorophenyl)-1-methyl-3,6-dihydro-pyrrolo[3,2-f]quinolin-7-one]	> 8.30
C=CCn1c(C)c(C)c2c3c(C(F)(F)F)cc(=O)[nH]c3ccc21 [Compound 236, 3-Allyl-1,2-dimethyl-9-trifluoromethyl-3,6-dihydro-pyrrolo[3,2-f]quinolin-7-one]	> 8.30
CC1c2c(ccc3[nH]c(=O)cc(C(F)(F)F)c23)N(CCC(F)(F)F)C1C (racemic) [Compound 174, (±)-1,2-Dimethyl-9-trifluoromethyl-3-(3,3,3-trifluoropropyl)-1,2,3,6-tetrahydro-pyrrolo[3,2-f]quinolin-7-one]	> 8.30
CC1CN(CC(F)(F)F)c2ccc3[nH]c(=O)cc(Cl)c3c21 (racemic) [Compound 132, (±)-9-Chloro-1-methyl-3-(2,2,2-trifluoro-ethyl)-1,2,3,6-tetrahydro-pyrrolo[3,2-f]quinolin-7-one]	> 8.30
